From patent publication US20180037574A1, “COMPOUND, COMPOSITION, ORGANIC ELECTROLUMINESCENCE ELEMENT, AND ELECTRONIC DEVICE” (IDEMITSU KOSAN CO., LTD., priority 2015, published 2018)

Assay: Dissolution of host and dopant materials in toluene solution (visual check)
Format: physicochemical
Details: 1.6-mass % toluene solution, host:dopant D-1 90:10 by mass, dissolved using ultrasonic waves, visually checked
Description: The compound H-1 obtained in Synthesis Example 1 was used as a host material and the compound D-1 was used as a dopant material at a mixture ratio by mass of the compound H-1:the compound D-1 being 90:10 to prepare a 1.6-mass % toluene solution. The materials were dissolved using ultrasonic waves. […] The toluene solution was coated on the base substrate by spin coating to form a 50-nm thick film. After the film formation, an unnecessary portion was removed with toluene from the film. Subsequently, the film was heated and dried on a hot plate heated at 150 degrees C. to manufacture a coated laminate substrate on which an emitting layer was formed. It should be noted that all the operations for forming the emitting layer were conducted in a nitrogen-atmosphere glove box.
In Comparative 1, manufacturing of an organic EL device was attempted in the same manner as in Example 1 except that a comparative compound H-a was used in place of the compound H-1 as the host material. However, the materials were not dissolved in the toluene solution but whitened to be unable to prepare a solution, so that an organic EL device was not manufactured.

- solubility in toluene solution: not dissolved
SMILES: c1ccc(-c2ccc(-c3nc(-n4c5ccccc5c5cc(-n6c7ccccc7c7ccccc76)ccc54)nc(-n4c5ccccc5c5cc(-n6c7ccccc7c7ccccc76)ccc54)n3)cc2)cc1 [H-a]
